# Data as given in ChEMBL document CHEMBL1157442, “Discovery of new binding elements in DPP-4 inhibition and their applications in novel DPP-4 inhibitor design” (Bioorg Med Chem Lett, 2008).
# How the values were obtained:
# [1] = target: Dipeptidyl peptidase 8 (Homo sapiens, UniProt Q6V1X1); assay: Inhibition of DPP8
# [2] = Clearance in rat plasma at 1 mg/kg, iv and 2 mg/kg, po; type: ADME, organism-based
# [3] = Half life in rat plasma 1 mg/kg, iv and 2 mg/kg, po; type: ADME, organism-based
# [4] = Cmax in rat 1 mg/kg, iv and 2 mg/kg, po; type: ADME, organism-based; conditions: in vivo
# [5] = Oral bioavailability in rat at 2 mg/kg; type: ADME, organism-based; conditions: in vivo
# [6] = target: Dipeptidyl peptidase 4 (Homo sapiens, UniProt P27487); assay: Inhibition of DPP4
# Chain of Dipeptidyl peptidase 4 (P27487 whole entry): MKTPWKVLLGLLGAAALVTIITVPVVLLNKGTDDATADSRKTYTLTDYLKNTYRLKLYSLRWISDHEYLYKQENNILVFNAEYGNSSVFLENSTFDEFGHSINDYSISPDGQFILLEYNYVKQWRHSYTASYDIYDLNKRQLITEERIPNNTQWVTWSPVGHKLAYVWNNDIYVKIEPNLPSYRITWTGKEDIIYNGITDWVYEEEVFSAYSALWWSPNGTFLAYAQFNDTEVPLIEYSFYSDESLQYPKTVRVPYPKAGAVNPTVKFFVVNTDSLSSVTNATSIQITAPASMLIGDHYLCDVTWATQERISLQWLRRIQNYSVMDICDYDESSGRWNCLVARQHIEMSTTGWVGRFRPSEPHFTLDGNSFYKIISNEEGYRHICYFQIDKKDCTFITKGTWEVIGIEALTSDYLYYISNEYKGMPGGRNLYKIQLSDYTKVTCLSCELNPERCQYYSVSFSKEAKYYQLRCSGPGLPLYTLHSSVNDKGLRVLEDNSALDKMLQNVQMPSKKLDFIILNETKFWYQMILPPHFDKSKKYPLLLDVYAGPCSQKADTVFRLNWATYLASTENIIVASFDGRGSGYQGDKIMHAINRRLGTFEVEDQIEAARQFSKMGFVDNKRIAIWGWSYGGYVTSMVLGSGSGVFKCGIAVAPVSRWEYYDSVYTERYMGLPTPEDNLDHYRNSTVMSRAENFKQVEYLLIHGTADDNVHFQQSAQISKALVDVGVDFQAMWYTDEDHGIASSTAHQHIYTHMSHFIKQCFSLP
# Chain of Dipeptidyl peptidase 8 (Q6V1X1 whole entry): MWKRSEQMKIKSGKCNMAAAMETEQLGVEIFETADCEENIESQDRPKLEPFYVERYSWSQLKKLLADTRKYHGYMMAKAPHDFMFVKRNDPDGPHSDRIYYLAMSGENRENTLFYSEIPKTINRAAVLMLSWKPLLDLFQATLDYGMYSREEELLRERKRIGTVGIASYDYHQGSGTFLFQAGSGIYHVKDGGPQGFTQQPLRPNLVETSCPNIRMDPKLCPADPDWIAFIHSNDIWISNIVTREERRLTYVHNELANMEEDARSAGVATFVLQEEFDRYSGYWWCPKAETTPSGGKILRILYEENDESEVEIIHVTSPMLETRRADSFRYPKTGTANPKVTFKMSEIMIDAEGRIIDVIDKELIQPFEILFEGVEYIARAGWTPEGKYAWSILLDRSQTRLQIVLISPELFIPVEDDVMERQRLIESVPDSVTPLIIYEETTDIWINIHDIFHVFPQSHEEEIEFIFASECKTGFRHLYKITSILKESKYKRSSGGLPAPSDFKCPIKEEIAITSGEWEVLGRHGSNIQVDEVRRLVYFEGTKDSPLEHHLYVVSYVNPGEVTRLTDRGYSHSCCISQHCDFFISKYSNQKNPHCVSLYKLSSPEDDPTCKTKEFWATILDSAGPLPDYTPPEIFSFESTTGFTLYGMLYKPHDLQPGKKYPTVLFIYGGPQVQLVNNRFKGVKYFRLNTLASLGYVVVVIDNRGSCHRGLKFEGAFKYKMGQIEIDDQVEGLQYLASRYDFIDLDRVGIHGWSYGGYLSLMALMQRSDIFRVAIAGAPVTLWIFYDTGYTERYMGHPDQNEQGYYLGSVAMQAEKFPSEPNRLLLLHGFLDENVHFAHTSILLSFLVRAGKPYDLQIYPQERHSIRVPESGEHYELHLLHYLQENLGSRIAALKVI
SMILES,IC50 [1],IC50 [6],also measured
C[C@H](c1nc(-c2ccc(OC(F)(F)F)cc2)no1)[C@H](N)C(=O)N1CCCC1,> 100 µM,,
NC(=O)c1cccc(-c2ccc([C@H](N)Cc3cc(F)ccc3F)cc2)c1,> 100 µM,,clearance [2]: 13 mL/min/kg; half-life [3]: 3.8 h; Cmax [4]: 2100 nM; bioavailability [5]: 130%
C[C@@H]1C(=O)NCCCN1C(=O)C[C@H](N)Cc1ccccc1F,,0.04 µM,
N[C@H](Cc1cc(F)ccc1F)c1ccc(-c2ccncc2Cl)cc1,> 100 µM,0.107 µM,
C[C@H](c1nc(-c2ccc(Cl)cc2Cl)no1)[C@H](N)C(=O)N1CC[C@H](F)C1,> 100 µM,0.615 µM,
C[C@H](c1nc(-c2ccc(S(C)(=O)=O)cc2Cl)no1)[C@H](N)C(=O)N1CC[C@H](F)C1,> 100 µM,,
N[C@H](Cc1cc(F)ccc1F)c1ccc(Br)cc1,> 100 µM,,
Cc1noc(C(=O)C[C@H](N)Cc2cc(F)ccc2F)n1,> 100 µM,,
C[C@@H](c1ccc(-c2ccncc2Cl)cc1)[C@H](N)C(=O)N1CC[C@H](F)C1,> 100 µM,0.071 µM,
C[C@@H](c1nc(-c2ccc(Cl)cc2Cl)no1)[C@H](N)Cc1cc(F)c(F)cc1F,> 100 µM,0.6 µM,
C[C@@H](c1nc(-c2ccc(OC(F)(F)F)cc2)no1)[C@H](N)Cc1cc(F)ccc1F,> 100 µM,4.4 µM,
C[C@@H](c1nc(-c2ccc(S(C)(=O)=O)cc2Cl)no1)[C@H](N)Cc1cc(F)c(F)cc1F,> 100 µM,0.046 µM,
N[C@@H](CC(=O)N1CCC[C@H]1CO)C(=O)N1CC[C@H](F)C1,,9.2 µM,
